Measured values as given in PubChem BioAssay AID1963840 (Molecular Pharmacology Branch, DTP, NCI, 2024).

System: 695427-040-R-J1-PDC complex spheroid viability
Experiment: Anticancer human tumor 695427-040-R-J1-PDC patient-derived colon adenocarcinoma cell line growth inhibition [POLQ]
Details: for IC50: curve of first compound; for viability, T/C: stronger effect = lower value
In short: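 Patient-derived tumour cells were co-cultured with HUVEC and mesenchymal stem cells as multicellular spheroids at 37 °C. They were treated with POLQ inhibitors (novobiocin, ART-558, RP6685) alone or combined with other agents. Top concentrations were at or near clinical Cmax (otherwise 10 microM; SN-38 at 1 microM), decreasing in half-log steps.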

[1] = second compound 0.0316 µM, first compound 0.0316 µM
[2] = second compound 0.0316 µM, first compound 0.1 µM
[3] = second compound 0.0316 µM, first compound 0.316 µM
[4] = second compound 0.0316 µM, first compound 1 µM
[5] = second compound 0.0316 µM, first compound 3.16 µM
[6] = second compound 0.0316 µM, first compound 10 µM
[7] = second compound 0.1 µM, first compound 0.0316 µM
[8] = second compound 0.1 µM, first compound 0.1 µM
[9] = second compound 0.1 µM, first compound 0.316 µM
[10] = second compound 0.1 µM, first compound 1 µM
[11] = second compound 0.1 µM, first compound 3.16 µM
[12] = second compound 0.1 µM, first compound 10 µM
[13] = second compound 0.316 µM, first compound 0.0316 µM
[14] = second compound 0.316 µM, first compound 0.1 µM
[15] = second compound 0.316 µM, first compound 0.316 µM
[16] = second compound 0.316 µM, first compound 1 µM
[17] = second compound 0.316 µM, first compound 3.16 µM
[18] = second compound 0.316 µM, first compound 10 µM
[19] = second compound 1 µM, first compound 0.0316 µM
[20] = second compound 1 µM, first compound 0.1 µM
[21] = second compound 1 µM, first compound 0.316 µM
[22] = second compound 1 µM, first compound 1 µM
[23] = second compound 1 µM, first compound 3.16 µM
[24] = second compound 1 µM, first compound 10 µM
[25] = second compound 3.16 µM, first compound 0.0316 µM
[26] = second compound 3.16 µM, first compound 0.1 µM
[27] = second compound 3.16 µM, first compound 0.316 µM
[28] = second compound 3.16 µM, first compound 1 µM
[29] = second compound 3.16 µM, first compound 3.16 µM
[30] = second compound 3.16 µM, first compound 10 µM
[31] = second compound 10 µM, first compound 0.0316 µM
[32] = second compound 10 µM, first compound 0.1 µM
[33] = second compound 10 µM, first compound 0.316 µM
[34] = second compound 10 µM, first compound 1 µM
[35] = second compound 10 µM, first compound 3.16 µM
[36] = second compound 10 µM, first compound 10 µM
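Further: spheroids exposed to compounds for seven days.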
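Wherever viability, T/C is given: 100% = DMSO vehicle control viability.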

C#Cc1c(F)ccc2cc(O)cc(-c3ncc4c(N5CC6CCC(C5)N6)nc(OCC56CCCN5CC(F)C6)nc4c3F)c12 (stereo not given) + Cc1cccc(N(C)C(=O)C2C(O)CCN2c2nc(C)cc(C(F)(F)F)c2C#N)c1
IC50 (second compound 0.0316 µM): > 10 µM | IC50 (second compound 0.1 µM): > 10 µM | IC50 (second compound 0.316 µM): > 10 µM | IC50 (second compound 1 µM): > 10 µM | IC50 (second compound 3.16 µM): > 10 µM | IC50 (second compound 10 µM): > 10 µM | viability, T/C [1]: 106% | viability, T/C [2]: 99.3% | viability, T/C [3]: 98% | viability, T/C [4]: 104% | viability, T/C [5]: 88.3% | viability, T/C [6]: 86.9% | viability, T/C [7]: 102% | viability, T/C [8]: 100% | viability, T/C [9]: 90.8% | viability, T/C [10]: 96% | viability, T/C [11]: 92.1% | viability, T/C [12]: 78.8% | viability, T/C [13]: 98.3% | viability, T/C [14]: 99% | viability, T/C [15]: 97.8% | viability, T/C [16]: 104% | viability, T/C [17]: 90.8% | viability, T/C [18]: 80.6% | viability, T/C [19]: 98% | viability, T/C [20]: 92.4% | viability, T/C [21]: 94.3% | viability, T/C [22]: 92.1% | viability, T/C [23]: 89.2% | viability, T/C [24]: 83.2% | viability, T/C [25]: 88.5% | viability, T/C [26]: 94.3% | viability, T/C [27]: 97% | viability, T/C [28]: 90.4% | viability, T/C [29]: 91% | viability, T/C [30]: 76.1% | viability, T/C [31]: 92.8% | viability, T/C [32]: 84.7% | viability, T/C [33]: 85.4% | viability, T/C [34]: 84.7% | viability, T/C [35]: 73.2% | viability, T/C [36]: 61.5%

CC1COCCN1c1cc(C2(O)CC3CCC(C2)O3)c2cnn(-c3ccn[nH]3)c2n1 (stereo not given) + Cc1cccc(N(C)C(=O)C2C(O)CCN2c2nc(C)cc(C(F)(F)F)c2C#N)c1
IC50 (second compound 0.0316 µM): 6.2 µM | IC50 (second compound 0.1 µM): 7.33 µM | IC50 (second compound 0.316 µM): 6.13 µM | IC50 (second compound 1 µM): 6.54 µM | IC50 (second compound 3.16 µM): 4.63 µM | IC50 (second compound 10 µM): 2.82 µM | viability, T/C [1]: 102% | viability, T/C [2]: 84.5% | viability, T/C [3]: 76.9% | viability, T/C [4]: 66% | viability, T/C [5]: 52.5% | viability, T/C [6]: 47.3% | viability, T/C [7]: 102% | viability, T/C [8]: 91.3% | viability, T/C [9]: 85% | viability, T/C [10]: 70.8% | viability, T/C [11]: 55.9% | viability, T/C [12]: 47.9% | viability, T/C [13]: 109% | viability, T/C [14]: 88.1% | viability, T/C [15]: 80.6% | viability, T/C [16]: 67.1% | viability, T/C [17]: 58.4% | viability, T/C [18]: 44% | viability, T/C [19]: 100% | viability, T/C [20]: 91.4% | viability, T/C [21]: 82.6% | viability, T/C [22]: 66.6% | viability, T/C [23]: 56.8% | viability, T/C [24]: 46.3% | viability, T/C [25]: 96% | viability, T/C [26]: 92.6% | viability, T/C [27]: 73.8% | viability, T/C [28]: 65.6% | viability, T/C [29]: 53.8% | viability, T/C [30]: 43.5% | viability, T/C [31]: 93.3% | viability, T/C [32]: 88.6% | viability, T/C [33]: 70.3% | viability, T/C [34]: 56.1% | viability, T/C [35]: 51.5% | viability, T/C [36]: 45.6%

CCc1cc2c(N3CCc4c(cc(Cn5ccnc5)cc4-c4cn(C)nc4C(F)(F)F)C3=O)cc(C)nc2c(OC)n1 + Cc1cccc(N(C)C(=O)C2C(O)CCN2c2nc(C)cc(C(F)(F)F)c2C#N)c1
IC50 (second compound 0.0316 µM): > 10 µM | IC50 (second compound 0.1 µM): > 10 µM | IC50 (second compound 0.316 µM): > 10 µM | IC50 (second compound 1 µM): > 10 µM | IC50 (second compound 3.16 µM): > 10 µM | IC50 (second compound 10 µM): > 10 µM | viability, T/C [1]: 102% | viability, T/C [2]: 99.6% | viability, T/C [3]: 104% | viability, T/C [4]: 108% | viability, T/C [5]: 108% | viability, T/C [6]: 98.3% | viability, T/C [7]: 110% | viability, T/C [8]: 100% | viability, T/C [9]: 102% | viability, T/C [10]: 107% | viability, T/C [11]: 103% | viability, T/C [12]: 103% | viability, T/C [13]: 108% | viability, T/C [14]: 105% | viability, T/C [15]: 93.2% | viability, T/C [16]: 105% | viability, T/C [17]: 110% | viability, T/C [18]: 95.7% | viability, T/C [19]: 117% | viability, T/C [20]: 95.6% | viability, T/C [21]: 88.3% | viability, T/C [22]: 95.4% | viability, T/C [23]: 108% | viability, T/C [24]: 85.2% | viability, T/C [25]: 99.8% | viability, T/C [26]: 92.2% | viability, T/C [27]: 91.8% | viability, T/C [28]: 106% | viability, T/C [29]: 97.5% | viability, T/C [30]: 108% | viability, T/C [31]: 102% | viability, T/C [32]: 98.7% | viability, T/C [33]: 87.8% | viability, T/C [34]: 95.4% | viability, T/C [35]: 93.9% | viability, T/C [36]: 89.7%

COc1cc2cc(C(=O)CCC(=O)O)sc2cc1OC + Cc1cccc(N(C)C(=O)C2C(O)CCN2c2nc(C)cc(C(F)(F)F)c2C#N)c1
IC50 (second compound 0.0316 µM): > 10 µM | IC50 (second compound 0.1 µM): > 10 µM | IC50 (second compound 0.316 µM): > 10 µM | IC50 (second compound 1 µM): > 10 µM | IC50 (second compound 3.16 µM): > 10 µM | IC50 (second compound 10 µM): > 10 µM | viability, T/C [1]: 100% | viability, T/C [2]: 106% | viability, T/C [3]: 96.5% | viability, T/C [4]: 99.5% | viability, T/C [5]: 105% | viability, T/C [6]: 92% | viability, T/C [7]: 111% | viability, T/C [8]: 97.1% | viability, T/C [9]: 98.2% | viability, T/C [10]: 95.3% | viability, T/C [11]: 111% | viability, T/C [12]: 88.3% | viability, T/C [13]: 112% | viability, T/C [14]: 106% | viability, T/C [15]: 106% | viability, T/C [16]: 108% | viability, T/C [17]: 114% | viability, T/C [18]: 100% | viability, T/C [19]: 108% | viability, T/C [20]: 101% | viability, T/C [21]: 108% | viability, T/C [22]: 98.9% | viability, T/C [23]: 103% | viability, T/C [24]: 88.8% | viability, T/C [25]: 96.7% | viability, T/C [26]: 98.3% | viability, T/C [27]: 102% | viability, T/C [28]: 101% | viability, T/C [29]: 97.9% | viability, T/C [30]: 95.4% | viability, T/C [31]: 94.3% | viability, T/C [32]: 82.2% | viability, T/C [33]: 101% | viability, T/C [34]: 89.5% | viability, T/C [35]: 99.4% | viability, T/C [36]: 90.9%

O=C(Nc1ccc(O)c(NS(=O)(=O)c2ccc(F)cc2)c1)c1ccc(-c2ccccc2)cc1 + Cc1cccc(N(C)C(=O)C2C(O)CCN2c2nc(C)cc(C(F)(F)F)c2C#N)c1
IC50 (second compound 0.0316 µM): > 10 µM | IC50 (second compound 0.1 µM): > 10 µM | IC50 (second compound 0.316 µM): > 10 µM | IC50 (second compound 1 µM): > 10 µM | IC50 (second compound 3.16 µM): > 10 µM | IC50 (second compound 10 µM): > 10 µM | viability, T/C [1]: 111% | viability, T/C [2]: 107% | viability, T/C [3]: 92.2% | viability, T/C [4]: 103% | viability, T/C [5]: 108% | viability, T/C [6]: 98.4% | viability, T/C [7]: 105% | viability, T/C [8]: 101% | viability, T/C [9]: 95.9% | viability, T/C [10]: 99.5% | viability, T/C [11]: 112% | viability, T/C [12]: 88.2% | viability, T/C [13]: 104% | viability, T/C [14]: 103% | viability, T/C [15]: 97.4% | viability, T/C [16]: 101% | viability, T/C [17]: 111% | viability, T/C [18]: 86.9% | viability, T/C [19]: 109% | viability, T/C [20]: 95.9% | viability, T/C [21]: 101% | viability, T/C [22]: 94.4% | viability, T/C [23]: 115% | viability, T/C [24]: 92.3% | viability, T/C [25]: 97.6% | viability, T/C [26]: 101% | viability, T/C [27]: 93.5% | viability, T/C [28]: 103% | viability, T/C [29]: 103% | viability, T/C [30]: 93.6% | viability, T/C [31]: 103% | viability, T/C [32]: 92.2% | viability, T/C [33]: 96.1% | viability, T/C [34]: 94% | viability, T/C [35]: 102% | viability, T/C [36]: 82.6%
